Source: US20070293451A1, “Regulation ao ApoB by Hsp110 proteins and related compositions and methods” (University of Pittsburgh, priority 2006, published 2007)
Peptide text beside a SMILES is read from it. * marks the point of attachment. 6FAM = O=C1OC2(c3ccc(O)cc3Oc3cc(O)ccc32)c2cc(C(=O)*)ccc21; Ahx = NCCCCCC(=O)O

How the values were obtained:
full-length Sse1p = target: T1, full-length Sse1p (Saccharomyces cerevisiae, UniProt P32589); experiment: Fluorescence anisotropy binding of labeled luciferase-derived peptide to full-length Sse1p
T1 sequence (P32589 1-693): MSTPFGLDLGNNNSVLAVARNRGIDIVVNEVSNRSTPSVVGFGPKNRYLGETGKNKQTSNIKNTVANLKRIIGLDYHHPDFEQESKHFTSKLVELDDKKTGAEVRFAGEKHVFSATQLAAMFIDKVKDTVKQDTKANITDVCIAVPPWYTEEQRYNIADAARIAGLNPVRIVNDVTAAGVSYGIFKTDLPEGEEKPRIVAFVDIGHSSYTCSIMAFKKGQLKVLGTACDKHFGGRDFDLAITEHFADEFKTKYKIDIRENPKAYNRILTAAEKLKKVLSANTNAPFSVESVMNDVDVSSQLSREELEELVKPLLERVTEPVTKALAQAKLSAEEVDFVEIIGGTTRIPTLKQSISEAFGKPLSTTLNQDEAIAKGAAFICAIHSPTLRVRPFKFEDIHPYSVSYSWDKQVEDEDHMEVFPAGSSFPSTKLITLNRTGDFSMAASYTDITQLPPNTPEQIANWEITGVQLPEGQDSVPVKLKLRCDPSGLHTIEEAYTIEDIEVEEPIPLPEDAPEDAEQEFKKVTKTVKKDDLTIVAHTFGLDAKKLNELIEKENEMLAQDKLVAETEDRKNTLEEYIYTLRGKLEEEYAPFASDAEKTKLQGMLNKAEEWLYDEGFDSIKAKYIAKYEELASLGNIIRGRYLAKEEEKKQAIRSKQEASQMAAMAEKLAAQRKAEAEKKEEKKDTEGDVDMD
Procedure: (§1) Binding was assessed by fluorescence anisotropy.

[1] = target: Sse1p peptide binding domain (Saccharomyces cerevisiae, UniProt P32589); conditions: fluorescence anisotropy
Procedure: (SEQ ID NO: 1) (which derives from firefly luciferase), assessed by fluorescence anisotropy.
as §1

ApoB100 = ApoB100 biogenesis and secretion from McArdle cells (pulse-chase) on Hsp110 over-expression; format: cell-based, rat; conditions: MTP inhibitor BMS-200150 present, without Hsp110 over-expression, data not shown
Procedure: FIGS. 9A and 9B show the effect of Hsp110 over-expression on ApoB100 secretion from McArdle cells, a standard rat hepatoma cell model of lipoprotein metabolism. ApoB100 (FIG. 9A) and albumin (FIG. 9B) biogenesis and secretion were assessed by published pulse-chase analytical methods.
An Hsp110 expression vector was obtained from Dr. John Subjeck (Roswell Park Cancer Center, N.Y.), and either that vector or a vector control was introduced into McArdle cells—a rat hepatoma cell line that also expresses full-length ApoB (that is, ApoB100). […] As a control, there was no effect on albumin secretion from these cells, regardless of whether Hsp110 was over-expressed (FIG. 9B). Furthermore, the over-expression of Hsp110 in the McArdle cells in the presence of a microsomal triglyceride transfer protein (MTP) inhibitor (BMS-200150; Jamil, H., D. A. Gordon, D. C. Eustice, C. M. Brooks, J. K. Dickson, Jr., Y. Chen, B. Ricci, C.-H. Chu, T. W. Harrity, C. P. Ciosek, Jr., S. A. Biller, R. E. Gregg, and J. R. Wetterau. 1996. An inhibitor of the microsomal triglyceride transfer protein inhibits apoB secretion from HepG2 cells. Proc Natl Acad Sci USA. 93, 11991-95) increased the percent of apoB recovered in the lysate and medium fractions from 14% to 28% (data not shown).

## CC[C@H](C)[C@H](NC(=O)[C@H](CC(C)C)NC(=O)CCCCCNC(=O)c1ccc2c(c1)C1(OC2=O)c2ccc(O)cc2Oc2cc(O)ccc21)C(=O)N[C@@H](CS)C(=O)NCC(=O)N[C@@H](Cc1ccccc1)C(=O)N[C@@H](CCCNC(=N)N)C(=O)N[C@H](C(=O)N[C@H](C(=O)N[C@@H](CC(C)C)C(=O)N[C@@H](CCSC)C(=O)N[C@@H](Cc1ccc(O)cc1)C(=O)N[C@@H](CCCNC(=N)N)C(=O)N[C@@H](Cc1ccccc1)C(=O)O)C(C)C)C(C)C [6-carboxyfluorescein-aminohexanoic acid-linked-LICGFRVVLMYRF] ({6FAM-Ahx}-LICGFRVVLMYRF-OH)
full-length Sse1p
  Kd: 2 to 3 nM
[1]
  lower affinity for Sse1p peptide binding domain alone compared with Sse1p: ~100 fold

## O=C1c2ccccc2CN1C1CCN(CCC(c2ccccc2)c2ccccc2)CC1 [BMS-200150, reference compound]
ApoB100
  percent of apoB recovered in the lysate and medium fractions: 14%

## LICGFRVVLMYRF [Unlabeled peptide, unlabeled form of the firefly luciferase-derived peptide]
full-length Sse1p; data not shown
  competition with labeled peptide for binding: competes for binding
